Reference: patent US11312712B2, “Azabenzimidazoles and their use as AMPA receptor modulators” (Janssen Pharmaceutica NV, priority 2015, dated 2022)

Biological target: GluA1o-γ8 (GRIA1o-CACNG8 fusion construct) (Homo sapiens (Human), UniProt P42261+Q8WXS5)
Assay: Calcium flux assay (FLIPR), inhibition of TARP γ8 dependent AMPA receptor activity
Assay type: cell-based
Settings: GluA1o-γ8 (GRIA1o-CACNG8 fusion) in HEK293 cells, calcium flux after 15 μM glutamate
Summary of the method: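 HEK293 cells stably expressing a 1:1 GRIA1o–CACNG8 fusion were loaded with Calcium-5/6 dye plus compound in pH 7.4 HEPES-buffered saline. FLIPR calcium flux after 15 μM glutamate was normalized to untreated and 10 μM CP465022 controls, and a four-parameter logistic fit gave pIC50.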

Chain of GluA1o-γ8 (GRIA1o-CACNG8 fusion construct) (P42261 other isoform, or with tags, fused parts or gaps): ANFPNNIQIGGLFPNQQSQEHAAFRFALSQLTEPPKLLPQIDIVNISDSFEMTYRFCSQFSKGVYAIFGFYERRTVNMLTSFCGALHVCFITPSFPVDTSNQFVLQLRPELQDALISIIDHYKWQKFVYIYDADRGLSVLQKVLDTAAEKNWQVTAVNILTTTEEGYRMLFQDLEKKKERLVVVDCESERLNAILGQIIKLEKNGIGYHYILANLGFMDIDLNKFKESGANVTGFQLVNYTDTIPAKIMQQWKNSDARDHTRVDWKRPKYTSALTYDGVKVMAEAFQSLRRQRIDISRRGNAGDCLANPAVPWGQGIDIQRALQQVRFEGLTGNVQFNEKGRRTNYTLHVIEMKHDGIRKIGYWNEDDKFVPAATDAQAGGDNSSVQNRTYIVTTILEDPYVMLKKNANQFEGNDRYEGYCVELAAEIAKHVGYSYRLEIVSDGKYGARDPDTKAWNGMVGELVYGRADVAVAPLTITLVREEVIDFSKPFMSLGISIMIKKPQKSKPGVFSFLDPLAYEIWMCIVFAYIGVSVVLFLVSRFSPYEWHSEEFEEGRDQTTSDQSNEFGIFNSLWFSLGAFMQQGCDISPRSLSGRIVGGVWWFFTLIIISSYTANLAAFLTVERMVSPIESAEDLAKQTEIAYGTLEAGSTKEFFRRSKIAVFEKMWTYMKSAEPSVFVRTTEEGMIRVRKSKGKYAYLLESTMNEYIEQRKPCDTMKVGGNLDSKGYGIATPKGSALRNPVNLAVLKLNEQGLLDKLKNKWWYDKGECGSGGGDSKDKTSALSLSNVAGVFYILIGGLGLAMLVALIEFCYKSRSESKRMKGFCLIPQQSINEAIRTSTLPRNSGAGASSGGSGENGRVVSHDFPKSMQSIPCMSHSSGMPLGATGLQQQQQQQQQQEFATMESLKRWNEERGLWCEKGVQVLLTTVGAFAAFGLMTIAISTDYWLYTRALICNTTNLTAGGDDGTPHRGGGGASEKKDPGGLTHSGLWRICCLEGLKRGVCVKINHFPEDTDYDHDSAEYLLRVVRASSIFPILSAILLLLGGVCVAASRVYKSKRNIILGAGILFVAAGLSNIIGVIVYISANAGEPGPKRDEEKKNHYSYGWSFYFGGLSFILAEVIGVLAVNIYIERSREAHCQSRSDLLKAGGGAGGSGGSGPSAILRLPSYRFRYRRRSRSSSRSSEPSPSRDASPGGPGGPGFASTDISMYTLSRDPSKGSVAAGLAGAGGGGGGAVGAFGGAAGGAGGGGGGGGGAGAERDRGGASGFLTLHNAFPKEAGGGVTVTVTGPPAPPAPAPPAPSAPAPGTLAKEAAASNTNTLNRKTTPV

| SMILES | IC50 [nM] |
| --- | --- |
| CC(C)(F)c1nc2ccc(C(F)(F)F)nc2n1-c1cc(Cl)c2[nH]ncc2c1 [Example 254, 3-(7-Chloro-1H-indazol-5-yl)-2-(1-fluoro-1-methyl-ethyl)-5-(trifluoromethyl)imidazo[4,5-b]pyridine] | 0.0631 |
| Cc1cc(-n2c(C3CC3)nc3ccc(C(F)(F)F)nc32)cc2cn[nH]c12 [Example 255, 2-Cyclopropyl-3-(7-methyl-1H-indazol-5-yl)-5-(trifluoromethyl)imidazo[4,5-b]pyridine] | 0.0316 |
| FC(F)(F)c1ccc2nc(C3(F)CC3)n(-c3cc(Cl)c4[nH]ncc4c3)c2n1 [Example 258, 3-(7-Chloro-1H-indazol-5-yl)-2-(1-fluorocyclopropyl)-5-(trifluoromethyl)imidazo[4,5-b]pyridine] | 0.0631 |
| Cc1cc(-n2c(C3(F)CC3)nc3ccc(C(F)(F)F)nc32)cc2cn[nH]c12 [Example 259, 2-(1-Fluorocyclopropyl)-3-(7-methyl-1H-indazol-5-yl)-5-(trifluoromethyl)imidazo[4,5-b]pyridine] | 0.0794 |
| Cc1cc(-n2c(-c3ccnc(F)c3)nc3ccc(C(F)F)nc32)cc2cn[nH]c12 [Example 263, 5-(Difluoromethyl)-2-(2-fluoro-4-pyridyl)-3-(7-methyl-1H-indazol-5-yl)imidazo[4,5-b]pyridine] | 0.158 |
| Fc1cc(-c2nc3ccc(C(F)F)nc3n2-c2cc(Cl)c3[nH]ncc3c2)ccn1 [Example 264, 3-(7-Chloro-1H-indazol-5-yl)-5-(difluoromethyl)-2-(2-fluoro-4-pyridyl)imidazo[4,5-b]pyridine] | 0.1 |
| FC(F)(F)c1ccc2nc(C(F)(F)F)n(-c3cc(Cl)c4cn[nH]c4c3)c2n1 [Example 265, 3-(4-Chloro-1H-indazol-6-yl)-2,5-bis(trifluoromethyl)imidazo[4,5-b]pyridine] | 126 |
| CC(F)(F)c1nc2ccc(C(F)(F)F)nc2n1-c1ccc2[nH]c(=O)sc2c1 [Example 266, 6-[2-(1,1-Difluoroethyl)-5-(trifluoromethyl)imidazo[4,5-b]pyridin-3-yl]-3H-1,3-benzothiazol-2-one] | 0.1 |
| CC(F)(F)c1nc2ccc(C(F)(F)F)nc2n1-c1cc(Cl)c2[nH]ncc2c1 [Example 267, 3-(7-Chloro-1H-indazol-5-yl)-2-(1,1-difluoroethyl)-5-(trifluoromethyl)imidazo[4,5-b]pyridine] | 0.0158 |
| Cc1ccc2nc(C(F)(F)F)n(-c3cc(Cl)c4[nH]ncc4c3)c2n1 [Example 268, 3-(7-Chloro-1H-indazol-5-yl)-5-methyl-2-(trifluoromethyl)imidazo[4,5-b]pyridine] | 0.0631 |
| CC(C)c1nc2ccc(C(F)F)nc2n1-c1cc(Cl)c2[nH]ncc2c1 [Example 269, 3-(7-Chloro-1H-indazol-5-yl)-5-(difluoromethyl)-2-isopropyl-imidazo[4,5-b]pyridine] | 0.0316 |
| FC(F)(F)c1ccc2nc(C(F)(F)F)n(-c3cc(Cl)c4[nH]ncc4c3)c2n1 [Example 270, 3-(7-Chloro-1H-indazol-5-yl)-2,5-bis(trifluoromethyl)imidazo[4,5-b]pyridine] | 0.02 |
| O=C1Cc2cc(-n3c(C(F)(F)F)nc4ccc(C(F)(F)F)nc43)cc(Cl)c2N1 [Example 271, 5-[2,5-Bis(trifluoromethyl)imidazo[4,5-b]pyridin-3-yl]-7-chloro-indolin-2-one] | 0.2 |
| O=C1Cc2cc(-n3c(C(F)F)nc4ccc(C(F)(F)F)nc43)cc(Cl)c2N1 [Example 272, 7-Chloro-5-[2-(difluoromethyl)-5-(trifluoromethyl)imidazo[4,5-b]pyridin-3-yl]indolin-2-one] | 0.2 |
| Cc1cc(-n2c(C(C)C)nc3ccc(C(F)F)nc32)cc2cn[nH]c12 [Example 273, 5-(Difluoromethyl)-2-isopropyl-3-(7-methyl-1H-indazol-5-yl)imidazo[4,5-b]pyridine] | 0.0631 |
| Cc1nc2ccc(C(F)F)nc2n1-c1cc(Cl)c2[nH]ncc2c1 [Example 274, 3-(7-Chloro-1H-indazol-5-yl)-5-(difluoromethyl)-2-methyl-imidazo[4,5-b]pyridine] | 0.316 |
| Cc1cc(-n2c(C(F)(F)F)nc3ccc(C(F)(F)F)nc32)cc2c1NC(=O)C2 [Example 275, 5-[2,5-Bis(trifluoromethyl)imidazo[4,5-b]pyridin-3-yl]-7-methyl-indolin-2-one] | 0.126 |
| Cc1cc(-n2c(C(C)(F)F)nc3ccc(C(F)(F)F)nc32)cc2c1NC(=O)C2 [Example 276, 5-[2-(1,1-Difluoroethyl)-5-(trifluoromethyl)imidazo[4,5-b]pyridin-3-yl]-7-methyl-indolin-2-one] | 0.2 |
| FC(F)c1nc2ccc(C(F)(F)F)nc2n1-c1cc(Cl)c2[nH]ncc2c1 [Example 277, 3-(7-Chloro-1H-indazol-5-yl)-2-(difluoromethyl)-5-(trifluoromethyl)imidazo[4,5-b]pyridine] | 0.0631 |
| Cc1ccc2nc(C(F)F)n(-c3cc(Cl)c4[nH]ncc4c3)c2n1 [Example 278, 3-(7-Chloro-1H-indazol-5-yl)-2-(difluoromethyl)-5-methyl-imidazo[4,5-b]pyridine] | 3.16 |

| SMILES | IC50 [nM] |
| --- | --- |
| Fc1cnc2c(c1)nc(C(F)(F)F)n2-c1cc(Cl)c2[nH]ncc2c1 [Example 279, 3-(7-Chloro-1H-indazol-5-yl)-6-fluoro-2-(trifluoromethyl)imidazo[4,5-b]pyridine] | 1.26 |
| FC(F)c1nc2ccc(C(F)(F)F)nc2n1-c1cc(Br)c2[nH]ncc2c1 [Example 280, 3-(7-Bromo-1H-indazol-5-yl)-2-(difluoromethyl)-5-(trifluoromethyl)imidazo[4,5-b]pyridine] | 0.0158 |
| Cc1cc(-n2c(C(F)(F)F)nc3ccc(C(F)(F)F)nc32)cc2sc(=O)[nH]c12 [Example 281, 6-[2,5-Bis(trifluoromethyl)imidazo[4,5-b]pyridin-3-yl]-4-methyl-3H-1,3-benzothiazol-2-one] | 0.0631 |
| O=c1[nH]c2c(Cl)cc(-n3c(C(F)(F)F)nc4ccc(C(F)(F)F)nc43)cc2s1 [Example 282, 6-[2,5-Bis(trifluoromethyl)imidazo[4,5-b]pyridin-3-yl]-4-chloro-3H-1,3-benzothiazol-2-one] | 0.0316 |
| O=c1[nH]c2c(F)cc(-n3c(C(F)(F)F)nc4ccc(C(F)(F)F)nc43)cc2o1 [Example 283, 6-[2,5-Bis(trifluoromethyl)imidazo[4,5-b]pyridin-3-yl]-4-fluoro-3H-1,3-benzoxazol-2-one] | 2.51 |
| COC(=O)c1cc(-n2c(C(F)(F)F)nc3ccc(C(F)(F)F)nc32)cc2cn[nH]c12 [Example 284, Methyl 5-[2,5-bis(trifluoromethyl)imidazo[4,5-b]pyridin-3-yl]-1H-indazole-7-carboxylate] | 126 |
| COC(=O)c1cc(-n2c(C(F)F)nc3ccc(C(F)(F)F)nc32)cc2cn[nH]c12 [Example 285, Methyl 5-[2-(difluoromethyl)-5-(trifluoromethyl)imidazo[4,5-b]pyridin-3-yl]-1H-indazole-7-carboxylate] | 251 |
| Cc1cc(-n2c(C(F)F)nc3ccc(C(F)(F)F)nc32)cc2cn[nH]c12 [Example 286, 2-(Difluoromethyl)-3-(7-methyl-1H-indazol-5-yl)-5-(trifluoromethyl)imidazo[4,5-b]pyridine] | 0.0501 |
| Cc1cc(-n2c(C(F)F)nc3ccc(C(F)(F)F)nc32)cc2c1NC(=O)C2 [Example 287, 5-[2-(Difluoromethyl)-5-(trifluoromethyl)imidazo[4,5-b]pyridin-3-yl]-7-methyl-indolin-2-one] | 0.158 |
| O=C1Cc2cc(-n3c(C(F)F)nc4ccc(C(F)(F)F)nc43)cc(F)c2N1 [Example 288, 5-[2-(Difluoromethyl)-5-(trifluoromethyl)imidazo[4,5-b]pyridin-3-yl]-7-fluoro-indolin-2-one] | 6.31 |
| Cc1cc(-n2c(C(F)(F)F)nc3ccc(C(F)(F)F)nc32)cc2[nH]ncc12 [Example 289, 3-(4-Methyl-1H-indazol-6-yl)-2,5-bis(trifluoromethyl)imidazo[4,5-b]pyridine] | 3.98 |
| O=c1[nH]c2c(Br)cc(-n3c(C(F)(F)F)nc4ccc(C(F)(F)F)nc43)cc2o1 [Example 290, 6-[2,5-Bis(trifluoromethyl)imidazo[4,5-b]pyridin-3-yl]-4-bromo-3H-1,3-benzoxazol-2-one] | 0.2 |
| FC(F)(F)c1ccc2nc(C(F)(F)F)n(-c3ccc4cn[nH]c4c3)c2n1 [Example 291, 3-(1H-Indazol-6-yl)-2,5-bis(trifluoromethyl)imidazo[4,5-b]pyridine] | 63.1 |
| O=C1Cc2cc(-n3c(C(F)(F)F)nc4ccc(C(F)(F)F)nc43)cnc2N1 [Example 292, 5-[2,5-Bis(trifluoromethyl)imidazo[4,5-b]pyridin-3-yl]-1,3-dihydropyrrolo[2,3-b]pyridin-2-one] | 7.94 |
| FC(F)(F)c1ccc2nc(C(F)(F)F)n(-c3cnc4[nH]ccc4c3)c2n1 [Example 293, 3-(1H-Pyrrolo[2,3-b]pyridin-5-yl)-2,5-bis(trifluoromethyl)imidazo[4,5-b]pyridine] | 39.8 |
| Cc1cc(-n2c(C(F)(F)F)nc3ccc(C(F)(F)F)nc32)cc2cn[nH]c12 [Example 294, 3-(7-Methyl-1H-indazol-5-yl)-2,5-bis(trifluoromethyl)imidazo[4,5-b]pyridine] | 0.02 |
| N#Cc1n[nH]c2ccc(-n3c(C(F)(F)F)nc4ccc(C(F)(F)F)nc43)cc12 [Example 295, 5-[2,5-Bis(trifluoromethyl)imidazo[4,5-b]pyridin-3-yl]-1H-indazole-3-carbonitrile] | 39.8 |
| Oc1n[nH]c2ccc(-n3c(C(F)F)nc4ccc(C(F)(F)F)nc43)cc12 [Example 296, 5-[2-(Difluoromethyl)-5-(trifluoromethyl)imidazo[4,5-b]pyridin-3-yl]-1H-indazol-3-ol] | 158 |
| O=C1Cc2ccc(-n3c(C4CC4)nc4ccc(C(F)(F)F)nc43)cc2N1 [Example 297, 6-[2-Cyclopropyl-5-(trifluoromethyl)imidazo[4,5-b]pyridin-3-yl]indolin-2-one] | 1000 |
